Source: paper PMC10825183 (Nature Communications, 2024)
pKd: −log10 of the molar value. “And” between values parts separate entries of the source, which are not always exact repeats. Equal values may be shown once. Read-outs that look alike come from different tables or passages of the source.

Experiments:
full length mHCN2 [1] = target: T1, full length mHCN2 (Mus musculus, UniProt O88703); details: read-out: binding affinity BC50, cited from earlier work
T1 construct: to full length mHCN2 and ΔDE (mHCN2 1-640) mutant channels, both expressed in Xenopus oocytes; expressed in transfected cells; host or cells: Xenopus laevis oocytes (cRNA injected; pGEMHE vector); excised macropatches
T1 sequence (O88703 1-863): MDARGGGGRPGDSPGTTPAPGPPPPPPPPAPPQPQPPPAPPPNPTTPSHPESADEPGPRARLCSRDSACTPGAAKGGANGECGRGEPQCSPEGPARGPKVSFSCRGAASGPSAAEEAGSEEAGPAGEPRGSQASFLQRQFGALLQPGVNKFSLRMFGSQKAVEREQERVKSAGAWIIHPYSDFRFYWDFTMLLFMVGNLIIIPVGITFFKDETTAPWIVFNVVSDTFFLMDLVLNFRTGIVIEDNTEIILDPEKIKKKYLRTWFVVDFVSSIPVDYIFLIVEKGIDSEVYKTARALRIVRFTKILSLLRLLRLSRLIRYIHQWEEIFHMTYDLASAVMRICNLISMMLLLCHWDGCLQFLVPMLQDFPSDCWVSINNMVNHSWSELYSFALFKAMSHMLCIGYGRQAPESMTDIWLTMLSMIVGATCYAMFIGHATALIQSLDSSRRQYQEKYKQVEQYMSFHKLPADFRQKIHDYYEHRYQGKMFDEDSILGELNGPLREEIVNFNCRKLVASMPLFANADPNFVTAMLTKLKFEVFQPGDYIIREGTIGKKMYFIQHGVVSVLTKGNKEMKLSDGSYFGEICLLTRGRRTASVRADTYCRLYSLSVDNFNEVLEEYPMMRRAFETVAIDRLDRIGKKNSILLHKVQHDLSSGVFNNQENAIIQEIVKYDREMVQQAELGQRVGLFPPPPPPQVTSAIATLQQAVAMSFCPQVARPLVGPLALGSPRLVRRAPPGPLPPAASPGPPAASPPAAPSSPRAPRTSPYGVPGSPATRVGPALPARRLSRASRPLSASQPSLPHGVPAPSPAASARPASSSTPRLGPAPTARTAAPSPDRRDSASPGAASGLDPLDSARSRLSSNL

full length mHCN2 [2] = target: T1, full length mHCN2; assay: Confocal patch-clamp fluorometry (cPCF), oocyte macropatches; type: binding; details: for factor of relative fluorescence increase: individual patches
Description: (§1) We tested this hypothesis using confocal patch-clamp fluorometry (cPCF)[8], measuring current activation and ligand binding in parallel.
(§2) Oocytes were surgically removed from adult females of the South African clawed frog Xenopus laevis under anesthesia (0.3% MS-222 (tricaine methanesulfonate) (Pharmaq, Fordingbridge, UK)). The surgery procedures were carried out in accordance with the German Animal Welfare Act with the approval of the Thuringian State Office for Consumer Protection on 30.08.2013 and 09.05.2018. The oocytes were treated with collagenase A (3 mg/mL; Roche Diagnostics (Grenzach-Wyhlen, Germany)) for 105 min in Ca^2+-free Barth solution containing 82.5 mM NaCl, 2 mM KCl, 1 mM MgCl2, and 5 mM HEPES (pH 7.5). Oocytes of stages IV and V were manually dissected and injected with cRNA-encoding mHCN2 channels of Mus musculus or constructs carrying a point mutation. After injection with cRNA, the oocytes were cultured at 18 °C for 2–10 days in Barth solution containing 84 mM NaCl, 1 mM KCl, 2.4 mM NaHCO3, 0.82 mM MgSO4, 0.41 mM CaCl2, 0.33 mM Ca(NO3)2, 7.5 mM Tris, cefuroxime, and penicillin/streptomycin (pH 7.4). The procedures had approval from the authorized animal ethics committee of the Friedrich Schiller University Jena. The methods were performed according to approved guidelines. Oocytes harvested in our laboratory were complemented with ready-to-use oocytes purchased from EcoCyte Bioscience (Dortmund, Germany).
(§3) The recordings were performed with an LSM 710 confocal microscope (Carl Zeiss, Jena, Germany) and were triggered by the ISO3 software (MFK, Niedernhausen, Germany). To distinguish the fluorescence of the nonbound f1cAMP from that of the bound f1cAMP, a second, chemically related dye, DY647 (Dyomics, Jena, Germany), was also added to the bath solution. The 543- and 633-nm lines of an He-Ne laser were used to excite f1cAMP and DY647, respectively. For quantifying the bound f1cAMP, the fluorescence intensities of the red and the green channels were corrected for small offsets, and the fluorescence in the red channel was scaled to the fluorescence in the green channel in the bath. The difference between the measured green and the scaled red profile for each pixel of the confocal image represents the fraction of the fluorescence signal originating from the bound f1cAMP. The free patch membrane (patch dome) only was used to quantify binding by setting a mask at a region of interest. The fluorescence, F, was averaged over all pixels inside this mask and normalized in each patch concerning the fluorescence at saturating (f1cAMP) and full channel activation (−130 mV), Fmax. The recording rate of the confocal images was 10 Hz.

ΔDE (mHCN2 1-640) = target: T2, ΔDE (mHCN2 1-640) (Mus musculus, UniProt O88703); assay: as above; type: binding; details: for factor of relative fluorescence increase: individual patches
T2 construct: full length mHCN2 and ΔDE (mHCN2 1-640) mutant channels, both expressed in Xenopus oocytes; expressed in transfected cells; host or cells: Xenopus laevis oocytes (cRNA injection, pGEMHE)
T2 sequence (O88703 1-640): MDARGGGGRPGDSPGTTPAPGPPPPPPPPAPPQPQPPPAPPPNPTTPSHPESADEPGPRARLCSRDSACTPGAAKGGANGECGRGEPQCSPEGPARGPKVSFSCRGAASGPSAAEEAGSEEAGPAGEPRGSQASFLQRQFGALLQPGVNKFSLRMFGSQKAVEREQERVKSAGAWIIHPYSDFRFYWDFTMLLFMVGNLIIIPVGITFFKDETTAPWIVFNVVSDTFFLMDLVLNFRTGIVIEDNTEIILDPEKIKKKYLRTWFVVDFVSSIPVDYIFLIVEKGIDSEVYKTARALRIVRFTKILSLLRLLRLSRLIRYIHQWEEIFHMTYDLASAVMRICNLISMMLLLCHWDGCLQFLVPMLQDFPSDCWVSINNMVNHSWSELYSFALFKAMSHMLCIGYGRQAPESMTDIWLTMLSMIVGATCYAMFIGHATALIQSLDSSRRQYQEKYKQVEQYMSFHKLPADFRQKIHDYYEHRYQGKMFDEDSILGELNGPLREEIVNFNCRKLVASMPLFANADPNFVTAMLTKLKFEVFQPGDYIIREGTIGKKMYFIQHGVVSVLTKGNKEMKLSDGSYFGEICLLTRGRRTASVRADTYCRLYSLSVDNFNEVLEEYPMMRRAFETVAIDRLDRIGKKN
Description: as §1, §2, §3

Substance: 8-Cy3B-AHT-cAMP [f1cAMP]
- pKd (full length mHCN2 [1]; activated mHCN2 channels): 6.60
- pKd (full length mHCN2 [1]; non-activated mHCN2 channels): 6.01
- mean increase of fluorescence intensity upon activation, F–130 mV/F−30mV (full length mHCN2 [2]; 0.25 µM f1cAMP, n = 9): 1.6 ± 0.1
- F-130 mV/F−30mV (full length mHCN2 [2]; 2.5 µM f1cAMP, n = 7): 1.1 ± 0.04
- factor of relative fluorescence increase (full length mHCN2 [2]; fcAMP 0.25 µM): 1.7 and 1.6 and 1.9 and 2.2 and 1.3 and 1.2
- factor of relative fluorescence increase (full length mHCN2 [2]; fcAMP 2.5 µM): 0.9 and 1.1 and 1.3 and 1.0 and 1.2
- mean increase of fluorescence intensity upon activation, F–130 mV/F−30mV (ΔDE (mHCN2 1-640); 0.25 µM f1cAMP, n = 4): 2.1 ± 0.3
- factor of relative fluorescence increase (ΔDE (mHCN2 1-640); fcAMP 0.25 µM): 1.6 and 2.4 and 1.7 and 2.6
- factor of relative fluorescence increase (ΔDE (mHCN2 1-640); fcAMP 2.5 µM): 1.1 and 1.3 and 1.2
